Test results published in PMC8742467, “Therapeutical interference with the epigenetic landscape of germ cell tumors: a comparative drug study and new mechanistical insights” (Clinical Epigenetics, 2022).
pEC50: −log10 of the molar value. Like-named read-outs stand apart in the source and are kept apart here.

What was measured:
[1] = test system: PRKCB, PRKD1, HDAC9, CSF1R expression in GCT cells; assay: Quantitative RT-PCR of co-treatment target genes; type: cell-based, Human; details: 0.2 × EC50, 0.5 × EC50 and EC50
Procedure: Quantitative RT-PCR (qRT-PCR) was performed as described previously. A total amount of 1 µg of RNA was in-vitro transcribed into cDNA by using Oligo(dT)18 Primer and Maxima H Minus Reverse Transcriptase (200 U/µL) (all Thermo Fisher Scientific). qRT-PCR runs were performed on a 384-well C1000 cycler (BioRad, Feldkirchen, Germany). All samples were analyzed in technical triplicates using 7.34 ng of cDNA for each replicate and the SYBR-green-based Luna Universal qPCR Master Mix (New England Biolabs, Frankfurt am Main, Germany). At the end of each run, melting curve analyses were performed. Oligonucleotide sequences are given in the supplement (Additional file 12: Table S2 B).

Sertoli cells FS1 (SC) = assay: XTT cell viability assay, Sertoli cells; type: cell-based; details: Homo sapiens; after 48 h
Procedure: (§1) The […] (XTT) assays were performed as described previously. In summary, for GCT and fibroblast cell lines 5 × 10^3 cells (3 × 10^3 for UC, PCa and RCC cell lines) per 96-well were seeded and different drug concentrations (see Additional file 2: Fig. S2, Additional file 3: Fig. S3) or corresponding solvents were added to the cells the following day. For drug details see Additional file 12: Table S2 C. Each condition was analyzed in four technical replicates and EC50 values were calculated by GraphPad Prism v8.

GCT cell lines = assay: XTT cell viability assay, GCT cell lines (pre-screen / summary); type: cell-based, Human; details: for EC50 / effective concentration in words: SE and EC proxies TCam-2 and 2102EP
In short: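 Cells (5 × 10^3 per well) are plated on day 0, then treated on day 1 with graded drug doses or vehicle. XTT conversion gives viability, from which EC50 is derived.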

[2] = test system: transcriptome of 2102EP cells; assay: RNA sequencing; type: cell-based, Human; details: 16 h; for A1BG Log2 fold change vs. DMSO / A1CF Log2 fold change vs. DMSO / A2M Log2 fold change vs. DMSO: unsorted data
In short: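 Transcriptome of 2102EP cells sequenced; differential expression between two groups tested with p values FDR-corrected for multiple testing. Solvent-control values averaged across three datasets (GSE189472, GSE190792, GSE190022).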

[3] = test system: phosphorylated kinase targets in 2102EP cells; assay: Proteome Profiler Human Phospho-Kinase Array; type: cell-based; details: 16 h
Procedure: For the detection of phosphorylated kinase targets, the Proteome Profiler Human Phospho-Kinase Array Kit (R&D Systems, Abingdon, UK) was used according to the manufacturer’s instructions. The ChemiDoc Imaging System (Bio-Rad Laboratories, Feldkirchen, Germany) was used for detection. 2102EP cells were harvested after 16 h of treatment with the epi-drugs. Pixel density was analyzed using Fiji ImageJ 1.53c.

[4] = test system: SE-R (cisplatin-resistant seminoma subclone); assay: XTT cell viability assay, mean per entity SE-R; type: cell-based; details: Homo sapiens, after 48 h
Procedure: as §1

[5] = test system: CC-R (cisplatin-resistant choriocarcinoma subclones); assay: XTT cell viability assay, mean per entity CC-R; type: cell-based; details: Homo sapiens, after 48 h
Procedure: as §1

2102EP (EC) = assay: XTT cell viability assay, 2102EP; type: cell-based; details: Homo sapiens, read-out: EC50 colour/symbol code, EC 2102EP
Procedure: as §1

[6] = test system: fibroblasts (MPAF, HVHF2); assay: XTT cell viability assay, fibroblasts; type: cell-based; details: Homo sapiens, Fibroblast; after 48 h, mean
Procedure: as §1

[7] = test system: EC-R (cisplatin-resistant embryonal carcinoma subclones); assay: XTT cell viability assay, mean per entity EC-R; type: cell-based; details: Homo sapiens, after 48 h
Procedure: as §1

[8] = test system: EC (embryonal carcinoma) cell lines; assay: XTT cell viability assay, mean per entity EC; type: cell-based; details: Homo sapiens, after 48 h
Procedure: as §1

[9] = Homo sapiens, GCT, cell line not stated, read-out: EC50 concentration used for low dose qRT-PCR
[10] = sorted data log2>±1.5, FDR p<0.05

SMILES | pEC50 (Sertoli cells FS1 (SC)) | pEC50 (GCT cell lines; [9]) | EC50 / effective concentration in words (GCT cell lines; first pre-screen, XTT) | A1BG Log2 fold change vs. DMSO [2] | A1CF Log2 fold change vs. DMSO [2] | A2M Log2 fold change vs. DMSO [2] | CREB, STAT3 and STAT5 phosphorylation and total levels of β-Catenin and HSP60 [3] | p53 S15 phosphorylation [3] | pEC50 [4] | pEC50 [5] | pEC50 [6] | pEC50 [7] | pEC50 [8] | EIF3CL Log2 fold change vs. DMSO [2, 10] | pEC50 (2102EP (EC); after 48 h, XTT, n = 4) | ERK1/2 phosphorylation [3] | other results
CN1C(=O)[C@@]23C[C@]4([C@]56C[C@@]78SS[C@@](CO)(C(=O)N7[C@H]5Nc5ccccc56)N(C)C8=O)c5ccccc5N[C@@H]4N2C(=O)[C@]1(CO)SS3 [Chaetocin] | 7.16 | 6.76 | nanomolar range | 0.04 | -2.02 | 1.33 | decreased | increased | 6.66 | 6.63 | 6.86 | 6.79 | 6.89 | – | – | – | PRKD1 expression (qRT-PCR) [1]: upregulation; ATP1A2 Log2 fold change vs. DMSO [2, 10]: -3.26; CASQ1 Log2 fold change vs. DMSO [2, 10]: -2.99; DLX5 Log2 fold change vs. DMSO [2, 10]: 5.91; DLX6 Log2 fold change vs. DMSO [2, 10]: 5.90; POU2F3 Log2 fold change vs. DMSO [2, 10]: -2.99; SERPINB3 Log2 fold change vs. DMSO [2, 10]: 6.77; pEC50 (2102EP (EC); 48 h): > 6.00
Cn1cc(CNCC2CCN(c3ncc(C(=O)NO)cn3)CC2)c2ccccc21 [Quisinostat] | 8.20 | 8.75 | nanomolar range | 1.07 | 2.77 | -0.10 | decreased | no alteration | 7.88 | 7.97 | < 7.30 | 8.13 | 7.94 | -3.69 | > 6.00 | – | PRKCB expression (qRT-PCR) [1]: upregulation; HBA1 Log2 fold change vs. DMSO [2, 10]: 5.01; IL13RA2 Log2 fold change vs. DMSO [2, 10]: -2.69; LYST Log2 fold change vs. DMSO [2, 10]: -2.73; TSPY4 Log2 fold change vs. DMSO [2, 10]: 5.17; TTC9B Log2 fold change vs. DMSO [2, 10]: 4.98
O=C1C(=Cc2cccnc2)C(=O)c2ccccc21 [PRT4165] | – | – | – | -0.25 | 0.91 | 1.71 | decreased | – | – | – | – | – | – | -2.52 | – | decreased | pEC50 (GCT cell lines; first pre-screen, XTT, read-out: EC50): ≥ 4.30; BST2 Log2 fold change vs. DMSO [2, 10]: -2.05; MMP1 Log2 fold change vs. DMSO [2, 10]: 6.18; MMP10 Log2 fold change vs. DMSO [2, 10]: 6.89; PPFIA4 Log2 fold change vs. DMSO [2, 10]: -2.26; SPANXA1 Log2 fold change vs. DMSO [2, 10]: 5.74
CCCc1cc(C)[nH]c(=O)c1CNC(=O)c1cc(-c2ccnc(N3CCN(C)CC3)c2)cc2c1cnn2C(C)C [GSK343] | 4.97 | 4.97 | – | -0.54 | -2.01 | -0.59 | decreased | – | 5.00 | 5.04 | 5.01 | 5.03 | 4.98 | – | 4.30 to 6.00 | decreased | CSF1R expression (qRT-PCR) [1]: upregulation; HDAC9 expression (qRT-PCR) [1]: upregulation; pEC50 (GCT cell lines; Homo sapiens, GCT, first pre-screen, XTT, read-out: EC50): ≥ 4.30; CSF1R Log2 fold change vs. DMSO [2, 10]: 3.81; FOSB Log2 fold change vs. DMSO [2, 10]: 3.96; GOLGA6D Log2 fold change vs. DMSO [2, 10]: -4.42; SCNN1B Log2 fold change vs. DMSO [2, 10]: -4.06; TAC1 Log2 fold change vs. DMSO [2, 10]: 3.59; UMODL1 Log2 fold change vs. DMSO [2, 10]: -3.29
